From patent US5328902A, “7-(substituted)-9-[(substituted glycyl)amido]-6-demethyl-6-deoxytetracyclines” (American Cyanamid Co., priority 1992, dated 1994)
Values after ≈ are worked out from the molar mass of the structure shown.

Assays:
Type in all cases: cell-based
[1] = tested on: Ps. acruginosa ATCC 27853; assay: MIC, agar dilution; conditions: Ps. acruginosa ATCC 27853
[2] = tested on: E. coli PRP1 Tet A; assay: microbe, parasite or virus in culture; conditions: E. coli PRP1 Tet A
[3] = tested on: S. aureus UBMS 90-2 Tet M; assay: microbe, parasite or virus in culture; conditions: S. aureus UBMS 90-2 Tet M
[4] = tested on: S. hemolyticus AVHAH 88-3; assay: MIC, agar dilution; conditions: S. hemolyticus AVHAH 88-3
[5] = tested on: E. coli J2175; assay: MIC, agar dilution; conditions: E. coli J2175
[6] = tested on: S. aureus UBMS 90-3; assay: MIC, agar dilution; conditions: S. aureus UBMS 90-3
[7] = tested on: S. aureus IVES 1 983; assay: MIC, agar dilution; conditions: S. aureus IVES 1 983
[8] = tested on: E. coli J3272 Tet D; assay: microbe, parasite or virus in culture; conditions: E. coli J3272 Tet D
[9] = tested on: S. aureus UBMS 88-5 Tet M; assay: microbe, parasite or virus in culture; conditions: S. aureus UBMS 88-5 Tet M
[10] = tested on: S. aureus ATCC 29213; assay: MIC, agar dilution; conditions: S. aureus ATCC 29213
[11] = tested on: E. coli UBMS 89-2 Tet sens.; assay: MIC, agar dilution; conditions: E. coli UBMS 89-2 Tet sens.
[12] = tested on: S. mariescens FPOR 8733; assay: MIC, agar dilution
[13] = tested on: S. aureus ROSE (MP); assay: MIC, agar dilution; conditions: S. aureus ROSE (MP)
[14] = tested on: E. coli #311 (MP); assay: MIC, agar dilution; conditions: E. coli #311 (MP)
[15] = tested on: S. aureus IVES 2943; assay: MIC, agar dilution; conditions: S. aureus IVES 2943
[16] = tested on: Enterococcus 12201; assay: MIC, agar dilution; conditions: Enterococcus 12201
[17] = tested on: E. faecalis ATCC 29212; assay: MIC, agar dilution; conditions: E. faecalis ATCC 29212
[18] = tested on: E. coli UBMS 90-5; assay: MIC, agar dilution
[19] = tested on: E. coli BAJ9003 IMP MUT; assay: microbe, parasite or virus in culture; conditions: E. coli BAJ9003 IMP MUT
[20] = tested on: E. coli J3272 Tet C; assay: microbe, parasite or virus in culture; conditions: E. coli J3272 Tet C
[21] = tested on: X. maltophilia NEMC 87210; assay: MIC, agar dilution
[22] = tested on: S. aureus UBMS 88-7 Tet K; assay: microbe, parasite or virus in culture; conditions: S. aureus UBMS 88-7 Tet K
[23] = tested on: E. coli ATCC 25922; assay: MIC, agar dilution; conditions: E. coli ATCC 25922
[24] = tested on: S. aureus UBMS 88-4; assay: MIC, agar dilution; conditions: S. aureus UBMS 88-4
[25] = tested on: E. coli UBMS 88-1 Tet B; assay: microbe, parasite or virus in culture; conditions: E. coli UBMS 88-1 Tet B; 18 hours at 35° C.
[26] = tested on: E. coli MC 4100 TNIOC Tet B; assay: microbe, parasite or virus in culture; conditions: E. coli MC 4100 TNIOC Tet B
[27] = tested on: E. coli MC 4100 Tet sens.; assay: MIC, agar dilution
[28] = tested on: S. aureus UBMS 90-1 Tet M; assay: microbe, parasite or virus in culture; conditions: S. aureus UBMS 90-1 Tet M
[29] = tested on: S. aureus SMITH (MP); assay: MIC, agar dilution; conditions: S. aureus SMITH (MP)
[30] = tested on: E. coli UBMS 90-4 Tet M; assay: microbe, parasite or virus in culture; conditions: E. coli UBMS 90-4 Tet M
[31] = tested on: E. coli UBMS 89-1 Tet M; assay: microbe, parasite or virus in culture; conditions: E. coli UBMS 89-1 Tet M
[32] = tested on: S. aureus NEMC 8769; assay: MIC, agar dilution; conditions: S. aureus NEMC 8769

SMILES	MIC [1] [µg/mL]	MIC [2] [µg/mL]	MIC [3] [µg/mL]	MIC [4] [µg/mL]	MIC [5] [µg/mL]	MIC [6] [µg/mL]	MIC [7] [µg/mL]	MIC [8] [µg/mL]	MIC [9] [µg/mL]	MIC [10] [µg/mL]	MIC [11] [µg/mL]	MIC [12] [µg/mL]	MIC [13] [µg/mL]	MIC [14] [µg/mL]	MIC [15] [µg/mL]	MIC [16] [µg/mL]	MIC [17] [µg/mL]	MIC [18] [µg/mL]	MIC [19] [µg/mL]	MIC [20] [µg/mL]	other results
C#CCN(C)CC(=O)Nc1cc(N(C)C)c2c(c1O)C(=O)C1=C(O)[C@]3(O)C(=O)C(C(N)=O)=C(O)[C@@H](N(C)C)[C@@H]3C[C@@H]1C2 [V, [4S-(4alpha,12aalpha)]-4,7-Bis(dimethylamino)-1,4,4a,5,5a,6,11,12a-octahydro-3,10, 12,12a-tetrahydroxy-9-[[[methyl-2-propynylamino]acetyl]amino]-1,11-dioxo-2-naphthacenecarboxamide]	> 32	> 32	8 (≈ 13.8 µM)	32 (≈ 55 µM)	> 32	4 (≈ 6.88 µM)	> 32	> 32	8 (≈ 13.8 µM)	4 (≈ 6.88 µM)	> 32	> 32	> 32	> 32	> 32	8 (≈ 13.8 µM)	4 (≈ 6.88 µM)	> 32	4 (≈ 6.88 µM)	> 32	MIC [21]: 32 µg/mL (≈ 55 µM); MIC [22]: 32 µg/mL (≈ 55 µM); MIC [23]: > 32 µg/mL; MIC [24]: 4 µg/mL (≈ 6.88 µM); MIC [25]: > 32 µg/mL; MIC [26]: > 32 µg/mL; MIC [27]: 32 µg/mL (≈ 55 µM); MIC [28]: 16 µg/mL (≈ 27.5 µM); MIC [29]: 4 µg/mL (≈ 6.88 µM); MIC [30]: > 32 µg/mL; MIC [31]: > 32 µg/mL; MIC [32]: 4 µg/mL (≈ 6.88 µM)
CN(C)c1cc(NC(=O)CNN2CCCCC2)c(O)c2c1CC1CC3C(N(C)C)C(O)=C(C(N)=O)C(=O)C3(O)C(O)=C1C2=O (stereo not drawn) [W, [4S-(4alpha,12aalpha)]-4,7-Bis(dimethylamino)-1,4,4a,5,5a,6,11,12a-octahydro-3,10, 12,12a-tetrahydroxy-hydroxy-1,11-dioxo-9[[(1-piperidinylamino)acetyl]amino]-2naphthacenecarboxamide]	> 32	> 32	> 32	> 32	> 32	16 (≈ 26.1 µM)	> 32	> 32	> 32	32 (≈ 52.2 µM)	> 32	> 32	> 32	> 32	> 32	> 32	> 32	> 32	16 (≈ 26.1 µM)	> 32	MIC [21]: > 32 µg/mL; MIC [22]: > 32 µg/mL; MIC [23]: > 32 µg/mL; MIC [24]: > 32 µg/mL; MIC [25]: > 32 µg/mL; MIC [26]: > 32 µg/mL; MIC [27]: 32 µg/mL (≈ 52.2 µM); MIC [28]: > 32 µg/mL; MIC [29]: 16 µg/mL (≈ 26.1 µM); MIC [30]: > 32 µg/mL; MIC [31]: > 32 µg/mL; MIC [32]: > 32 µg/mL
CN(CCO)CC(=O)Nc1cc(N(C)C)c2c(c1O)C(=O)C1=C(O)[C@]3(O)C(=O)C(C(N)=O)=C(O)[C@@H](N(C)C)C3CC1C2 (stereo partly shown) [Q]	> 32	> 32	16 (≈ 27.2 µM)	16 (≈ 27.2 µM)	32 (≈ 54.5 µM)	8 (≈ 13.6 µM)	> 32	32 (≈ 54.5 µM)	16 (≈ 27.2 µM)	16 (≈ 27.2 µM)	32 (≈ 54.5 µM)	16 (≈ 27.2 µM)	> 32	32 (≈ 54.5 µM)	> 32	4 (≈ 6.81 µM)	4 (≈ 6.81 µM)	32 (≈ 54.5 µM)	2 (≈ 3.4 µM)	> 32	MIC [21]: 8 µg/mL (≈ 13.6 µM); MIC [22]: 32 µg/mL (≈ 54.5 µM); MIC [23]: 32 µg/mL (≈ 54.5 µM); MIC [24]: 8 µg/mL (≈ 13.6 µM); MIC [25]: 32 µg/mL (≈ 54.5 µM); MIC [26]: > 32 µg/mL; MIC [27]: 4 µg/mL (≈ 6.81 µM); MIC [28]: 32 µg/mL (≈ 54.5 µM); MIC [29]: 8 µg/mL (≈ 13.6 µM); MIC [30]: 16 µg/mL (≈ 27.2 µM); MIC [31]: 32 µg/mL (≈ 54.5 µM); MIC [32]: 8 µg/mL (≈ 13.6 µM)
CN(C)c1cc(NC(=O)CNCCO)c(O)c2c1CC1CC3C(N(C)C)C(O)=C(C(N)=O)C(=O)C3(O)C(O)=C1C2=O.Cl (stereo not drawn) [P, [4S-(4alpha,12aalpha)]-4,7-Bis(dimethylamino)-1.4,4a,5,5a,6,11,12a-octahydro-3,10, 12,12a-tetrahydroxy-9-[[[(2-hydroxyethyl)amino]acetyl]amino]-1,11-dioxo-2-naphthacenecarboxamide monohydrochloride]	> 32	> 32	16	32	32	8	> 32	16	32	8	> 32	> 32	> 32	16	> 32	8	4	32	2	> 32	MIC [21]: > 32 µg/mL; MIC [22]: 32 µg/mL; MIC [23]: 16 µg/mL; MIC [24]: 8 µg/mL; MIC [25]: > 32 µg/mL; MIC [26]: > 32 µg/mL; MIC [27]: 4 µg/mL; MIC [28]: 32 µg/mL; MIC [29]: 4 µg/mL; MIC [30]: 32 µg/mL; MIC [31]: > 32 µg/mL; MIC [32]: 4 µg/mL
CN(C)c1cc(NC(=O)CNOCc2ccccc2)c(O)c2c1C[C@H]1C[C@H]3[C@H](N(C)C)C(O)=C(C(N)=O)C(=O)[C@@]3(O)C(O)=C1C2=O [X, [4S-(4-alpha,12aalpha)]-4,7-Bis(dimethylamino)-1,4,4a,5,5a,6,11,12a-octahydro-3,10, 12,12a-tetrahydroxy-1,11-dioxo-9-[[[(phenylmethoxy)amino]acetyl]amino]-2-naphthacenecarboxamide]	> 32	> 32	2 (≈ 3.15 µM)	4 (≈ 6.29 µM)	> 32	1 (≈ 1.57 µM)	8 (≈ 12.6 µM)	16 (≈ 25.2 µM)	2 (≈ 3.15 µM)	1 (≈ 1.57 µM)	> 32	> 32	16 (≈ 25.2 µM)	16 (≈ 25.2 µM)	8 (≈ 12.6 µM)	4 (≈ 6.29 µM)	1 (≈ 1.57 µM)	> 32	1 (≈ 1.57 µM)	> 32	MIC [21]: 16 µg/mL (≈ 25.2 µM); MIC [22]: 4 µg/mL (≈ 6.29 µM); MIC [23]: 16 µg/mL (≈ 25.2 µM); MIC [24]: 1 µg/mL (≈ 1.57 µM); MIC [25]: > 32 µg/mL; MIC [26]: > 32 µg/mL; MIC [27]: 4 µg/mL (≈ 6.29 µM); MIC [28]: 2 µg/mL (≈ 3.15 µM); MIC [29]: 0.5 µg/mL (≈ 0.787 µM); MIC [30]: > 32 µg/mL; MIC [31]: 16 µg/mL (≈ 25.2 µM); MIC [32]: 1 µg/mL (≈ 1.57 µM)
